Results taken from ChEMBL document CHEMBL1201862, “PubChem BioAssay data set” (2004).
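Method: 48-hour compound exposure of cells in 96-well plates, five concentrations, linear interpolation of endpoints. GI50 = concentration required for 50% inhibition of growth.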 Calls of active or inactive are those of the source. No stated cut-off is given here; in the data, active = GI50 up to about 1.1 µM and inactive = higher.

Key:
Assay in all cases: NCI-60 cell line screen, 48 h
786-0 = tested on: 786-0
A498 = tested on: A498
ACHN = tested on: ACHN
BT-549 = tested on: BT-549
CAKI-1 = tested on: CAKI-1
CCRF-CEM = tested on: CCRF-CEM
COLO 205 = tested on: COLO 205
DU-145 = tested on: DU-145
EKVX = tested on: EKVX
HCC 2998 = tested on: HCC 2998
HCT-116 = tested on: HCT-116
HCT-15 = tested on: HCT-15
HL-60 = tested on: HL-60
HOP-62 = tested on: HOP-62
HOP-92 = tested on: HOP-92
HT-29 = tested on: HT-29
Hs-578T = tested on: Hs-578T
IGROV-1 = tested on: IGROV-1
K562 = tested on: K562
KM12 = tested on: KM12
LOX IMVI = tested on: LOX IMVI
M14 = tested on: M14
MCF7 = tested on: MCF7
MDA-MB-231 = tested on: MDA-MB-231
MDA-MB-435 = tested on: MDA-MB-435
MDA-N = tested on: MDA-N
MOLT-4 = tested on: MOLT-4
Malme-3M = tested on: Malme-3M
NCI-H226 = tested on: NCI-H226
NCI-H23 = tested on: NCI-H23
NCI-H460 = tested on: NCI-H460
NCI-H522 = tested on: NCI-H522
NCI/ADR-RES = tested on: NCI/ADR-RES
OVCAR-3 = tested on: OVCAR-3
OVCAR-4 = tested on: OVCAR-4
OVCAR-5 = tested on: OVCAR-5
OVCAR-8 = tested on: OVCAR-8
PC-3 = tested on: PC-3
RPMI-8226 = tested on: RPMI-8226
RXF 393 = tested on: RXF 393
SF-268 = tested on: SF-268
SF-295 = tested on: SF-295
SF-539 = tested on: SF-539
SK-MEL-28 = tested on: SK-MEL-28
SK-MEL-2 = tested on: SK-MEL-2
SK-MEL-5 = tested on: SK-MEL-5
SK-OV-3 = tested on: SK-OV-3
SN12C = tested on: SN12C
SNB-19 = tested on: SNB-19
SNB-75 = tested on: SNB-75
SR = tested on: SR
SW-620 = tested on: SW-620
T47D = tested on: T47D
TK-10 = tested on: TK-10
U-251 = tested on: U-251
UACC-257 = tested on: UACC-257
UACC-62 = tested on: UACC-62
UO-31 = tested on: UO-31

Question: What does the source list for `COC(=O)C(Cc1ccccc1)C(=O)NC(CNC(=O)OCc1ccccc1)C(=O)OCc1ccccc1` (stereo not drawn)?
Answer: GI50 (786-0): 25.9 µM (inactive); GI50 (A498): > 47.8 µM (inactive); GI50 (ACHN): 34.6 µM (inactive); GI50 (BT-549): 53.3 µM (inactive); GI50 (CAKI-1): 36.8 µM (inactive); GI50 (CCRF-CEM): 14.7 µM (inactive); GI50 (COLO 205): 19.8 µM (inactive); GI50 (DU-145): 66.5 µM (inactive); GI50 (EKVX): 76.7 µM (inactive); GI50 (HCC 2998): 30.8 µM (inactive); GI50 (HCT-116): 31.9 µM (inactive); GI50 (HCT-15): 45.7 µM; GI50 (HL-60): 30.9 µM (inactive); GI50 (HOP-62): > 100 µM (inactive); GI50 (HOP-92): 32.1 µM (inactive); GI50 (HT-29): 29.3 µM (inactive); GI50 (Hs-578T): > 63.5 µM (inactive); GI50 (IGROV-1): 65.6 µM (inactive); GI50 (K562): 15.6 µM (inactive); GI50 (KM12): 58.9 µM (inactive); GI50 (LOX IMVI): 19.6 µM (inactive); GI50 (M14): 15.3 µM (inactive); GI50 (MCF7): > 100 µM (inactive); GI50 (MDA-MB-231): 20.8 µM (inactive); GI50 (MDA-MB-435): 21.8 µM (inactive); GI50 (MDA-N): 21.4 µM (inactive); GI50 (MOLT-4): 11.8 µM (inactive); GI50 (Malme-3M): 19.8 µM (inactive); GI50 (NCI-H226): 32.1 µM (inactive); GI50 (NCI-H23): 43.6 µM (inactive); GI50 (NCI-H460): 42.1 µM (inactive); GI50 (NCI-H522): 26.7 µM (inactive); GI50 (NCI/ADR-RES): 27 µM (inactive); GI50 (OVCAR-3): 20 µM (inactive); GI50 (OVCAR-4): 38.3 µM (inactive); GI50 (OVCAR-5): > 100 µM (inactive); GI50 (OVCAR-8): 63.1 µM (inactive); GI50 (PC-3): 38.2 µM (inactive); GI50 (RPMI-8226): 21.4 µM (inactive); GI50 (RXF 393): 21.8 µM (inactive); GI50 (SF-268): 44.8 µM (inactive); GI50 (SF-295): 47.1 µM (inactive); GI50 (SF-539): 40.6 µM (inactive); GI50 (SK-MEL-28): 19.3 µM (inactive); GI50 (SK-MEL-2): 24.1 µM (inactive); GI50 (SK-MEL-5): 18.8 µM (inactive); GI50 (SK-OV-3): > 100 µM (inactive); GI50 (SN12C): 49.8 µM (inactive); GI50 (SNB-19): 86.3 µM (inactive); GI50 (SNB-75): 23.3 µM (inactive); GI50 (SR): 24 µM (inactive); GI50 (SW-620): 38.1 µM (inactive); GI50 (T47D): 36.1 µM (inactive); GI50 (TK-10): 33.7 µM (inactive); GI50 (U-251): 49.1 µM (inactive); GI50 (UACC-257): 17.6 µM (inactive); GI50 (UACC-62): 23.6 µM (inactive); GI50 (UO-31): 28.6 µM (inactive)
